# Numbers after ± are expanded uncertainties.
# Assay: activity coefficient (dimensionless); of the first substance listed, at infinite dilution; xn = mol fraction of the nth substance listed
# Conditions: 101 kPa, Liquid, Chromatography, x1 = 0
SMILES,activity coefficient (328.15 K),activity coefficient (338.15 K),activity coefficient (343.15 K),activity coefficient (348.15 K),activity coefficient (338.2 K),activity coefficient (353.22 K),activity coefficient (348.25 K),activity coefficient (353.15 K),activity coefficient (358.25 K),activity coefficient (363.21 K)
C=CCCCCCC [oct-1-ene] + NCCCCCCCCN,3.94 ± 0.2,3.38 ± 0.17,3.16 ± 0.16,3 ± 0.15,–,–,–,–,–,–
CCOCC [diethyl ether] + NCCCCCCCCN,3.52 ± 0.18,3.4 ± 0.17,3.37 ± 0.17,3.36 ± 0.17,–,–,–,–,–,–
CCCCCl [1-chlorobutane] + NCCCCCCCCCCN,–,–,–,2.12 ± 0.11,2.38 ± 0.12,2.01 ± 0.1,–,–,–,–
CCCOC(C)=O [propyl ethanoate] + NCCCCCCCCN,1.29 ± 0.06,1.08 ± 0.048,0.997 ± 0.044,0.929 ± 0.042,–,–,–,–,–,–
CCCCOC(C)=O [butyl ethanoate] + NCCCCCCCCCCN,–,–,–,1.17 ± 0.054,1.5 ± 0.073,1.03 ± 0.046,–,–,–,–
C=CCCCCC [1-heptene] + NCCCCCCCCCCN,–,–,–,3.1 ± 0.16,3.43 ± 0.18,2.97 ± 0.15,–,–,–,–
CCCCCCCl [1-chlorohexane] + NCCCCCCCCCCN,–,–,–,2.81 ± 0.14,3.46 ± 0.18,2.54 ± 0.13,–,–,–,–
CO [methanol] + NCCCCCCCCCCN,–,–,–,0.634 ± 0.033,0.551 ± 0.032,0.682 ± 0.035,–,–,–,–
CCCCCCCCCC [decane] + NCCCCCCCCCCN,–,–,–,5.03 ± 0.26,5.59 ± 0.29,4.78 ± 0.25,–,–,–,–
ClC(Cl)(Cl)Cl [tetrachloromethane] + NCCCCCCCCCCN,–,–,–,2.05 ± 0.1,2.25 ± 0.12,1.98 ± 0.1,–,–,–,–
C=CCCCCCC [oct-1-ene] + NCCCCCCCCCCN,–,–,–,3.65 ± 0.19,4.09 ± 0.21,3.45 ± 0.18,–,–,–,–
CCOCC [diethyl ether] + NCCCCCCCCCCN,–,–,–,3.69 ± 0.19,3.84 ± 0.2,3.64 ± 0.19,–,–,–,–
C=CCCCCC [1-heptene] + NCCCCCCCCCCCCN,–,–,–,–,–,–,4.43 ± 0.23,4.22 ± 0.22,4.08 ± 0.21,3.88 ± 0.2
CCCCCl [1-chlorobutane] + NCCCCCCCCN,1.88 ± 0.095,1.65 ± 0.081,1.55 ± 0.075,1.48 ± 0.071,–,–,–,–,–,–
CCCCCCCCCC [decane] + NCCCCCCCCN,5.47 ± 0.28,4.82 ± 0.25,4.58 ± 0.23,4.36 ± 0.22,–,–,–,–,–,–
CO [methanol] + NCCCCCCCCCCCCN,–,–,–,–,–,–,0.774 ± 0.037,0.841 ± 0.039,0.919 ± 0.041,1.01 ± 0.044
CCCCCCC [heptane] + NCCCCCCCCN,4.36 ± 0.22,4.09 ± 0.21,4 ± 0.2,3.95 ± 0.2,–,–,–,–,–,–
C=CCCCCCCCC [1-decene] + NCCCCCCCCCCN,–,–,–,3.82 ± 0.2,4.34 ± 0.22,3.57 ± 0.18,–,–,–,–

# Continued, values first:
activity coefficient (328.15 K),activity coefficient (338.15 K),activity coefficient (343.15 K),activity coefficient (348.15 K),activity coefficient (338.2 K),activity coefficient (353.22 K),activity coefficient (348.25 K),activity coefficient (353.15 K),activity coefficient (358.25 K),activity coefficient (363.21 K),SMILES
–,–,–,–,–,–,4.76 ± 0.24,4.74 ± 0.24,4.68 ± 0.24,4.63 ± 0.24,CCCCC [pentane] + NCCCCCCCCCCCCN
–,–,–,–,–,–,4.28 ± 0.22,4.12 ± 0.21,3.93 ± 0.2,3.8 ± 0.2,C=CCCCC [hex-1-ene] + NCCCCCCCCCCCCN
–,–,–,–,–,–,3.08 ± 0.16,2.91 ± 0.15,2.73 ± 0.14,2.68 ± 0.14,CCCCCCl [1-chloropentane] + NCCCCCCCCCCCCN
2.81 ± 0.14,2.7 ± 0.14,2.67 ± 0.14,2.65 ± 0.14,–,–,–,–,–,–,C=CCCC [1-pentene] + NCCCCCCCCN
–,–,–,1.11 ± 0.05,1.39 ± 0.066,0.991 ± 0.044,–,–,–,–,CCCOC(C)=O [propyl ethanoate] + NCCCCCCCCCCN
–,–,–,2.43 ± 0.12,2.94 ± 0.15,2.23 ± 0.12,–,–,–,–,CCCCCCl [1-chloropentane] + NCCCCCCCCCCN
–,–,–,–,–,–,4.21 ± 0.22,4.04 ± 0.21,3.89 ± 0.2,3.75 ± 0.19,C=CCCC [1-pentene] + NCCCCCCCCCCCCN
–,–,–,–,–,–,2.08 ± 0.11,2.07 ± 0.11,2.06 ± 0.1,2.04 ± 0.1,c1ccccc1 [benzene] + NCCCCCCCCCCCCN
2.07 ± 0.11,1.86 ± 0.094,1.77 ± 0.089,1.72 ± 0.085,–,–,–,–,–,–,CCc1ccccc1 [ethylbenzene] + NCCCCCCCCN
–,–,–,1.78 ± 0.089,1.97 ± 0.1,1.72 ± 0.085,–,–,–,–,CCc1ccccc1 [ethylbenzene] + NCCCCCCCCCCN
0.669 ± 0.034,0.675 ± 0.034,0.681 ± 0.034,0.692 ± 0.035,–,–,–,–,–,–,CCCCO [butan-1-ol] + NCCCCCCCCN
